Assay results: PubChem BioAssay AID248 (DTP/NCI, 2004)
“And” between values parts separate entries of the source, which are not always exact repeats. Identical values can stand only once. Inconclusive results and toxic doses are left out. Cut-off read from the data, not from the text of the source: active = T/C of 150% or more; inactive = T/C below 125%.

Test system: L1210 leukemia ip in BDF1 mice, survival T/C
Experiment: NCI In Vivo Anticancer Drug Screen. Data for tumor model L1210 Leukemia (intraperitoneal) in B6D2F1 (BDF1) mice
Conditions: endpoint: mean survival time, higher = longer survival
Procedure, shortened: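 Tumor cells were implanted, animals were treated, and survival was followed. The result divides the treated measurement by the vehicle-control measurement.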

[1] = dose: 100.0 mg/kg/injection, schedule: Q04DX003 (ip), vehicle: saline
[2] = dose: 200.0 mg/kg/injection, schedule: Q04DX003 (ip), vehicle: saline
[3] = dose: 400.0 mg/kg/injection, schedule: Q04DX003 (ip), vehicle: saline
[4] = dose: 100.0 mg/kg/injection, schedule: Q04DX002 (ip), vehicle: Klucel (hydroxypropylcellulose) (HPC)
[5] = dose: 100.0 mg/kg/injection, schedule: Q04DX002 (ip), vehicle: saline with Tween-80
[6] = dose: 200.0 mg/kg/injection, schedule: Q04DX002 (ip), vehicle: saline with Tween-80
[7] = dose: 400.0 mg/kg/injection, schedule: Q04DX002 (ip), vehicle: saline with Tween-80

Measured: T/C

Cc1c(C)c(Br)c(C)c(-c2c(C)c(C)c(C)c(Br)c2C)c1C
inactive: dose: 50.0 mg/kg/injection, schedule: Q01DX009 (ip), vehicle: Klucel (hydroxypropylcellulose) (HPC) 99 % of control | dose: 100.0 mg/kg/injection, schedule: Q01DX009 (ip), vehicle: Klucel (hydroxypropylcellulose) (HPC) 97 % of control | dose: 200.0 mg/kg/injection, schedule: Q01DX009 (ip), vehicle: Klucel (hydroxypropylcellulose) (HPC) 94 % of control | dose: 400.0 mg/kg/injection, schedule: Q01DX009 (ip), vehicle: Klucel (hydroxypropylcellulose) (HPC) 90 % of control

CCOC(=O)NC(=O)Nc1ncn[nH]1
inactive: [1] 97 % of control | [2] 94 % of control | [3] 94 % of control

COC(=O)CNC(=O)C1NC(C)(C)SC1(C)C (stereo not drawn)
inactive: dose: 100.0 mg/kg/injection, schedule: Q01DX001 (ip), vehicle: saline 97 % of control | dose: 200.0 mg/kg/injection, schedule: Q01DX001 (ip), vehicle: saline 101 % of control | dose: 400.0 mg/kg/injection, schedule: Q01DX001 (ip), vehicle: saline 95 % of control

CCC12CC(Br)C(C1)OC2=O (stereo not drawn)
inactive: dose: 100.0 mg/kg/injection, schedule: Q04DX003 (ip), vehicle: other 100 % of control | dose: 200.0 mg/kg/injection, schedule: Q04DX003 (ip), vehicle: other 95 % of control | dose: 400.0 mg/kg/injection, schedule: Q04DX003 (ip), vehicle: other 94 % of control

O=C(CN1CC1)NCCCCCCCCNC(=O)CN1CC1
active: dose: 33.0 mg/kg/injection, schedule: Q01DX009 (ip), vehicle: carboxymethylcellulose (CMC) 183 % of control | dose: 40.0 mg/kg/injection, schedule: Q04DX003 (ip), vehicle: Klucel (hydroxypropylcellulose) (HPC) 154 % of control | dose: 50.0 mg/kg/injection, schedule: Q01DX001 (ip), vehicle: carboxymethylcellulose (CMC) 152 % of control | dose: 60.0 mg/kg/injection, schedule: Q04DX003 (ip), vehicle: Klucel (hydroxypropylcellulose) (HPC) 173 % of control
inactive: dose: 4.4 mg/kg/injection, schedule: Q01DX001 (ip), vehicle: carboxymethylcellulose (CMC) 108 % of control | dose: 6.6 mg/kg/injection, schedule: Q01DX001 (ip), vehicle: carboxymethylcellulose (CMC) 115 % of control | dose: 7.0 mg/kg/injection, schedule: Q01DX009 (ip), vehicle: carboxymethylcellulose (CMC) 97 % of control | dose: 10.0 mg/kg/injection, schedule: Q01DX001 (ip), vehicle: carboxymethylcellulose (CMC) 117 % of control | dose: 11.0 mg/kg/injection, schedule: Q01DX009 (ip), vehicle: carboxymethylcellulose (CMC) 112 % of control | dose: 15.0 mg/kg/injection, schedule: Q01DX001 (ip), vehicle: carboxymethylcellulose (CMC) 117 % of control | dose: 25.0 mg/kg/injection, schedule: Q01DX009 (ip), vehicle: carboxymethylcellulose (CMC) 118 % of control | dose: 50.0 mg/kg/injection, schedule: Q01DX009 (ip), vehicle: carboxymethylcellulose (CMC) 104 % of control | dose: 90.0 mg/kg/injection, schedule: Q04DX003 (ip), vehicle: Klucel (hydroxypropylcellulose) (HPC) 97 % of control

Cc1ccc(NC(=O)/C=C/C(=O)Nc2ccc(C)cc2)cc1
inactive: [1] 103 % of control | [2] 100 % of control | [3] 103 % of control

CCCCCCCC(C)NCCOC(=O)c1ccc(N)cc1 (stereo not drawn)
inactive: dose: 75.0 mg/kg/injection, schedule: Q01DX001 (ip), vehicle: other 117 % of control | dose: 150.0 mg/kg/injection, schedule: Q01DX001 (ip), vehicle: other 101 % of control

O=NN(CCCl)C(=O)Nc1ccc(Oc2ccc(NC(=O)N(CCCl)N=O)cc2)cc1
active: dose: 375.0 mg/kg/injection, schedule: Q01DX001 (ip), vehicle: carboxymethylcellulose (CMC) 192 % of control | dose: 500.0 mg/kg/injection, schedule: Q01DX001 (ip), vehicle: carboxymethylcellulose (CMC) 198 % of control | dose: 750.0 mg/kg/injection, schedule: Q01DX001 (ip), vehicle: carboxymethylcellulose (CMC) 190 % of control | dose: 1000.0 mg/kg/injection, schedule: Q01DX001 (ip), vehicle: carboxymethylcellulose (CMC) 154 % of control and 246 % of control
inactive: dose: 1250.0 mg/kg/injection, schedule: Q01DX001 (ip), vehicle: carboxymethylcellulose (CMC) 104 % of control | dose: 1500.0 mg/kg/injection, schedule: Q01DX001 (ip), vehicle: carboxymethylcellulose (CMC) 122 % of control | dose: 2000.0 mg/kg/injection, schedule: Q01DX001 (ip), vehicle: carboxymethylcellulose (CMC) 86 % of control

COC(=O)c1ccc(NCC(C)(C)N)cc1
inactive: dose: 12.0 mg/kg/injection, schedule: Q01DX001 (ip), vehicle: saline 94 % of control | dose: 12.0 mg/kg/injection, schedule: Q01DX009 (ip), vehicle: saline 98 % of control | dose: 12.0 mg/kg/injection, schedule: Q04DX003 (ip), vehicle: saline 97 % of control | dose: 25.0 mg/kg/injection, schedule: Q01DX001 (ip), vehicle: saline 96 % of control | dose: 25.0 mg/kg/injection, schedule: Q01DX009 (ip), vehicle: saline 105 % of control | dose: 25.0 mg/kg/injection, schedule: Q04DX003 (ip), vehicle: saline 104 % of control | dose: 50.0 mg/kg/injection, schedule: Q01DX001 (ip), vehicle: saline 101 % of control | dose: 50.0 mg/kg/injection, schedule: Q01DX009 (ip), vehicle: saline 93 % of control | dose: 50.0 mg/kg/injection, schedule: Q04DX003 (ip), vehicle: saline 97 % of control

CCNC(=O)NCc1ccc(C)cc1
inactive: [4] 102 % of control | dose: 200.0 mg/kg/injection, schedule: Q04DX002 (ip), vehicle: Klucel (hydroxypropylcellulose) (HPC) 105 % of control | dose: 400.0 mg/kg/injection, schedule: Q04DX002 (ip), vehicle: Klucel (hydroxypropylcellulose) (HPC) 112 % of control

O=C1CCCCCCCS(=O)(=O)C1
inactive: dose: 75.0 mg/kg/injection, schedule: Q01DX001 (ip), vehicle: carboxymethylcellulose (CMC) 112 % of control | dose: 150.0 mg/kg/injection, schedule: Q01DX001 (ip), vehicle: carboxymethylcellulose (CMC) 104 % of control

O=C(NCC(O)CNC(=O)Nc1ccc(C2=NCC(O)CN2)cc1)Nc1ccc(C2=NCC(O)CN2)cc1 (stereo not drawn)
inactive: dose: 25.0 mg/kg/injection, schedule: Q01DX Z (ip), vehicle: carboxymethylcellulose (CMC) 100 % of control | dose: 50.0 mg/kg/injection, schedule: Q01DX Z (ip), vehicle: carboxymethylcellulose (CMC) 108 % of control | dose: 100.0 mg/kg/injection, schedule: Q01DX Z (ip), vehicle: carboxymethylcellulose (CMC) 121 % of control

O=C(NCCCCCCCNC(=O)Nc1ccc(C2=NCCN2)cc1)Nc1ccc(C2=NCCN2)cc1
inactive: dose: 62.0 mg/kg/injection, schedule: Q01DX Z (ip), vehicle: carboxymethylcellulose (CMC) 107 % of control | dose: 125.0 mg/kg/injection, schedule: Q01DX Z (ip), vehicle: carboxymethylcellulose (CMC) 98 % of control | dose: 250.0 mg/kg/injection, schedule: Q01DX Z (ip), vehicle: carboxymethylcellulose (CMC) 98 % of control

CN1C(c2ccc(Cl)cc2)OCC1(C)C (stereo not drawn)
inactive: dose: 100.0 mg/kg/injection, schedule: Q04DX003 (ip), vehicle: saline sonified 90 % of control | dose: 200.0 mg/kg/injection, schedule: Q04DX003 (ip), vehicle: saline sonified 92 % of control

CN(C)C1CCC(C=C(C2CCC(CC(=O)O)CC2)C2CCC(CC(=O)O)CC2)CC1 (stereo not drawn)
inactive: [5] 111 % of control | [6] 101 % of control | [7] 105 % of control

Cc1c(C(=O)NN)no[n+]1[O-]
inactive: dose: 25.0 mg/kg/injection, schedule: Q04DX002 (ip), vehicle: Klucel (hydroxypropylcellulose) (HPC) 96 % of control | dose: 50.0 mg/kg/injection, schedule: Q04DX002 (ip), vehicle: Klucel (hydroxypropylcellulose) (HPC) 93 % of control | [4] 93 % of control

CC1CN=C(c2ccc3ccccc3c2O)S1 (stereo not drawn)
inactive: dose: 100.0 mg/kg/injection, schedule: Q01DX005 (ip), vehicle: saline with Tween-80 90 % of control | dose: 100.0 mg/kg/injection, schedule: Q01DX009 (ip), vehicle: saline with Tween-80 113 % of control | [5] 103 % of control | dose: 200.0 mg/kg/injection, schedule: Q01DX005 (ip), vehicle: saline with Tween-80 90 % of control | dose: 200.0 mg/kg/injection, schedule: Q01DX009 (ip), vehicle: saline with Tween-80 90 % of control | [6] 96 % of control | dose: 400.0 mg/kg/injection, schedule: Q01DX009 (ip), vehicle: saline with Tween-80 94 % of control | [7] 103 % of control

C[C@@H]1C[C@](O)([C@@H](C)Cl)C(=O)O[C@@H]2CCN3CC=C(COC(=O)[C@]1(C)O)[C@H]23
inactive: dose: 3.0 mg/kg/injection, schedule: Q01DX Z (ip), vehicle: saline 107 % of control | dose: 6.0 mg/kg/injection, schedule: Q01DX Z (ip), vehicle: saline 103 % of control | dose: 12.0 mg/kg/injection, schedule: Q01DX Z (ip), vehicle: saline 100 % of control | dose: 24.0 mg/kg/injection, schedule: Q01DX Z (ip), vehicle: saline 103 % of control
